Measurements from patent US20140186872A1, “BISACODYL AND ITS ANALOGUES AS DRUGS FOR USE IN THE TREATMENT OF CANCER” (CENTRE NATIONAL DE LA RECHERCHE SCIENTIFIQUE- CNRS, priority 2011, published 2014).
Read-outs that look alike come from different tables or passages of the source.

Legend:
[1] = tested on: human fetal neural stem cells (f-NSC cells); assay: ATP-Glo cell viability on fetal neural stem cells; type: cell-based
[2] = tested on: quiescent TG1 glioblastoma stem cells; assay: ATP-Glo (Cell Titer Glo) cell viability, dose/response, quiescent TG1 cells; type: cell-based, human; conditions: for effect on survival of quiescent TG1 cells (words): own conditioned medium; for effect on survival of quiescent TG1 cells (words) / EC50 / cytotoxicity to quiescent TG1 cells: 24 h; for EC50: Homo sapiens, quiescent TG1 cells, ATP-Glo, read-out: concentration leading to 50% of effect (EC50); for cytotoxicity to quiescent TG1 cells: 10 μM
Protocol: The TG1 cells were put into quiescence by keeping the cells in culture without changing the medium from 9 to 16 days. The state of quiescence was verified by non-incorporation of nucleotides into the DNA of the cells (see example 9).
The quiescent cells were put back in 1 mL of conditioned medium, dissociated mechanically by pipetting up and down 100 times with a P1000 micropipette preset to 400 μl and counted with Trypan Blue, after dilution in conditioned medium, to obtain a final suspension of 8.10^5 cells/mL.
(§1) 50 μl of solution containing cells was deposited per well in a 96-well plate (Greiner #655090).
(§2) The test compounds, in solution of 100% of DMSO were diluted in culture medium: in the absence of DMSO (medium 0% DMSO) or in the presence of 2% of DMSO (medium 2% DMSO) at concentrations of 200 μM, 100 μM, 80 μM, 60 μM, 40 μM, 20 μM, 10 μM and 2 μM. For all these dilutions the final concentration in DMSO was 2% (see Table 1 below; volumes shown make it possible to construct dose/response curves, in triplicate, for 1 compound on a 96-well plate—FIG. 1)
50 μL of solution of compound was added at the concentrations specified above to 50 μL of cells in the plate (FIG. 1) (Final concentration of compounds in contact with the cells: 100 μM, 50 μM, 40 μM, 30 μM, 20 μM, 10 μM, 5 μM, 1 μM (in 1% of final DMSO). Final concentration of positive control: 50 μM in 1% of final DMSO. Final concentration of negative control: 1% final DMSO).
The cells were incubated for 23 to 24 hours at 37° C. in an incubator in the presence of 5% CO2 (under humid atmosphere at 95% provided by a reservoir filled with distilled water).
(§3) The test of cell viability was carried out using the Cell Titer Glo kit (Promega #G7571). After thawing of the Cell Titer Glo reagent (1 Buffer vial+1 Substrate vial per plate) protected from the light, the contents of the Buffer vial were transferred to the Substrate vial. 100 μl of Cell Titer Glo reagent was deposited on the cells treated with the compounds.
(§4) The results, which were given for each well in strokes per second (sps), were converted to percentage cell survival relative to the control 1% of DMSO, which was fixed at 100%.
(§5) The EC50 was determined as the concentration that gives 50% of the response.
(§6) Glioblastoma (WHO grade IV glioma) stem cells (TG1, TG16 and OB1) were derived from tumor samples of 3 patients at Sainte Anne Hospital (Paris, France), as previously described (48) and expanded as neurosphere cultures. In continuously proliferating cultures, neurospheres were mechanically dissociated into a single-cell suspension twice a week with 90% renewal of their culture medium. Quiescent glioblastoma stem cells were obtained by non-renewal of the culture medium for 9-16 days following cell seeding. The non-proliferating state was assessed by decreased ability of the cells to incorporate EdU (5-ethynyl-2′-deoxyuridine) using the Click-iT™ EdU Flow Cytometry Assay Kit (Invitrogen, France) according to the manufacturer's instructions. […]
(§7) Confirmed hit compounds from the primary and secondary screens were purchased from Prestwick Chemical and dissolved in DMSO to obtain 10 mM concentrated stock solutions. Hit compound validation was obtained through dose-response curves on the viability of TG1 glioblastoma stem cells under the same experimental conditions (cell density, treatment duration) as described for the primary and secondary screens. Each compound was tested in triplicate in at least three independent experiments on proliferating and quiescent glioblastoma stem TG1 cells.
(§8) The EC50 value was determined for each compound by fitting the data points according to the following equation: […]
(§9) where y represents the expected response (expressed as a percentage of cell viability), x is the chemical compound concentration, Smax and Smin are the maximum and minimum viability responses recorded, respectively, and n is the Hill coefficient. Curve fitting was performed using the Microsoft Excel Solver component.

[3] = tested on: proliferating TG1 glioblastoma stem cells; assay: ATP-Glo (Cell Titer Glo) cell viability, dose/response, proliferating TG1 cells; type: cell-based, human; conditions: for effect on survival of proliferating TG1 cells: own culture medium
Protocol: The TG1 proliferating cells correspond to cells for which medium is renewed regularly, twice weekly.
The proliferating cells were put back in 1 mL of fresh NS34 medium, dissociated mechanically by pipetting up and down 100 times with a P1000 micropipette preset to 400 μl and counted with Trypan Blue, after dilution in fresh NS34 medium, to obtain a final suspension of 6×10^5 cells/mL.
as §1, §2
50 μL of solution of compound was added at the concentrations specified above to 50 μL of cells in the plate (FIG. 1) (Final concentration of compounds in contact with the cells: 100 μM, 50 μM, 40 μM, 30 μM, 20 μM, 10 μM, 5 μM, 1 μM (in 1% of final DMSO). Final concentration of positive control: 50 μM in 1% of final DMSO. Final concentration of negative control: 1% final DMSO). […]
as §3, §4, §5, §6, §7, §8, §9

[4] = tested on: U-87 MG glioblastoma cell line; assay: ATP-Glo cell viability on U-87 MG cells; conditions: for cytotoxic effect on U-87 MG cells: 24 h
Protocol: (§10) The cells were passed 2 or 3 days before the experiment. On that very day, the cells are detached with trypsin according to the above protocol, then centrifuged for 10 minutes at 800 rpm.
(§11) The supernatant was removed and the cells were resuspended in culture medium, then counted and finally diluted to give a final suspension of 10^6 cells/mL.
(§12) 7 mL of cellular suspension at 10^6 cells/mL was prepared for each test compound.
The glioblastoma U-87 MG cell line was purchased from ATCC and expanded in Eagle's Minimum Essential Medium (EMEM) (ATCC) supplemented with 10% fetal bovine serum (FBS) (Invitrogen, France) and 1% penicillin/streptomycin (Invitrogen, France).
The pH of the medium solution was then adjusted to values varying between 7.4 and 6.0 with 1M HCl or a sodium acetate buffer (0.1 M pH=4). The culture media were placed in a CO2 cell culture incubator settled to 5% CO2 and 37° C. for 1 hour. The pH was measured again and re-adjusted to the expected values if necessary and culture media were filter-sterilized (0.22 μm filter) prior to their use. The toxicity of DDPM (10 or 100 μM) on proliferating and quiescent TG1 cells was then assessed under the same conditions as those described in the previous section. pH dependency of lead compounds was also assessed for the glioblastoma U-87 MG cell line and on normal fetal neural stem cells and primary human astrocytes in their respective culture media (adjusted to pH 7.4 or 6.2) with HCl (1M) or a sodium acetate buffer (0.1 M pH=4).

[5] = Stability of the test compounds in the culture medium (HPLC); type: physicochemical; conditions: for half-life at 10 μM: 1% DMSO, 37° C., HPLC
Protocol: A mass m was weighed with an analytical balance and a volume V of DMSO was added.
The solution of the compound at 10 mM was diluted to 1/10, still in DMSO.
The latter solution was diluted to 1/100 in medium in order to obtain a final concentration of 10 μM and 1% of DMSO.
After homogenizing (2 min), 150 μl was taken and was mixed with 150 μl of acetonitrile to precipitate the proteins present in the medium, which corresponds to a dilution to ½.
The mixture was vortexed for 1 min and then centrifuged for 10 min at 15000 g.
The supernatant was again diluted to ½ with 1 volume of milliQ water and then injected in HPLC.
The same treatment was carried out at times 2 h, 4 h, 6 h and 24 h.
The solutions were analysed in HPLC using a Gilson chain equipped with a diode array detector and of an automatic injector with an injection loop of 20 μl.
10 μM solutions of Bisacodyl and DDPM were prepared in proliferating or quiescent glioblastoma stem cell culture medium in the presence of 1% DMSO. Following protein precipitation (with acetonitrile), samples were analyzed by HPLC after 0, 2, 4, 6 and 24 h of incubation at 37° C.

[6] = tested on: human primary astrocytes (HA cells); assay: ATP-Glo cell viability on human astrocytes; type: cell-based
Text: Primary human astrocytes (HA cells) were expanded in AM Medium (both from ScienCell Research Laboratories, Carlsbad Calif.) according to the manufacturer's instructions.

[7] = tested on: HEK293 cells; assay: ATP-Glo cell viability on HEK 293 cells
Protocol: as §10, §11, §12
Human Embryonic Kidney 293 cells (HEK 293 cells) were expanded in Minimum Essential Medium (MEM) with 2 mM L-Glutamine, 100 UI/ml-100 μg/ml Penicillin/Streptomycin and 10% FBS.

[8] = tested on: quiescent TG1 glioblastoma stem cells; assay: ATP-Glo (Cell Titer Glo) cell viability, dose/response, quiescent TG1 cells; type: cell-based, human; conditions: treated 24 h in freshly prepared non-conditioned medium, versus own medium
[9] = tested on: caspase 3/7 activity in proliferating and quiescent TG1 cells; assay: Apo-ONE Homogeneous Caspase-3/7 Assay in TG1 cells; type: cell-based, human
Protocol: Proliferating (30 000 cells/well) and quiescent (40 000 cells/well) TG1 cells were suspended in freshly prepared culture medium (pH=7.3) or acidified freshly prepared culture medium (pH=6.4) and treated with increasing concentrations of the lead compounds for 24 hours. Following treatment, apoptosis was measured with the Apo-ONE Homogeneous Caspase-3/7 Assay from Promega according to the manufacturer's instructions. Staurosporine (Sigma, Aldrich) and culture medium were used as positive and negative controls, respectively.

[10] = 100 μM, acidification with sodium acetate buffer, versus HCl

SMILES: COc1ccc(C(c2ccc(O)cc2)c2ccccn2)cc1 (racemic) [Compound 6, 4-((4-Methoxyphenyl)(pyridin-2-yl)methyl)phenol]
- effect on survival / toxicity, f-NSC cells [1]: little or no effect
- effect on survival of quiescent TG1 cells (words) [2]: effect similar to that described for bisacodyl

SMILES: C#CCOc1ccc(C(c2ccc(O)cc2)c2ccccn2)cc1 (racemic) [Compound 9, 4-((4-(Prop-2-yn-1-yloxy)phenyl)(pyridin-2-yl)methyl)phenol]
- concentration from which a large decrease in survival of NSC cells occurs [1]: ≥ 40 µM
- effect on survival of proliferating TG1 cells ([3]; 24 h): also on the proliferating cells
- concentrations causing a considerable decrease in survival of proliferating cells ([3]; proliferating TG1 cells): above 40 μM
- effect on survival of quiescent TG1 cells (words) [2]: active on the quiescent cells

SMILES: CC(=O)Oc1ccc(C(c2ccc(OC(C)=O)cc2)c2ccccn2)cc1 [Compound 1, Bisacodyl]
- survival of U-87 MG cells ([4]; concentrations between 10 and 100 μM): 90%
- half-life at 10 μM ([5]; read-out: half-life in the medium of the proliferating cells (converted)): 2 h
- half-life at 10 μM ([5]; quiescent glioblastoma stem cell culture medium (no cells), read-out: half-life in the medium of the quiescent cells (converted)): 4 h
- toxicity for HA cells [6]: does not display any toxicity
- Emax ([6]; Homo sapiens, Astrocyte, not due to cell death, read-out: maximum effect on HA cells: reduction of ATP levels): 30%
- survival of human astrocytes (HA) ([6]; concentrations above 10 μM): 60%
- effect on survival / toxicity, f-NSC cells [1]: does not display any toxicity
- cell survival of f-NSC cells ([1]; concentrations of compound up to 100 μM): over 90%
- effect on survival of proliferating TG1 cells ([3]; 24 h): not on TG1 cells proliferating continuously
- toxicity for HEK293 cells [7]: does not display any toxicity
- survival of HEK293 cells ([7]; 10 μM): 100%
- survival of HEK293 cells ([7]; 100 μM): 80%
- EC50 [2]: 1 µM
- effect on survival of quiescent TG1 cells (words) ([2]; listed as Bisacodyl): only active on TG1 cells in quiescence
- effect on survival of quiescent TG1 cells (words) ([2]; listed as bisacodyl): more selective effects

SMILES: Oc1ccc(C(c2ccc(O)cc2)c2ccccn2)cc1 [Compound 2, 4,4′-(Pyridin-2-ylmethylene)diphenol]
- effect on quiescent TG1 cells after media exchange [8]: significantly reduced
- percentage of U-87 cell death ([4]; acidic pH adjusted with sodium acetate buffer, versus HCl): even higher
- cytotoxic effect on U-87 MG cells ([4]; pH 6.2 set with 1M HCl, versus physiological pH): significantly higher
- cytotoxic effect on U-87 MG cells ([4]; physiological pH): no cytotoxic effect
- change in concentration in the culture media (stability) ([5]; proliferating and quiescent culture medium, up to 24 h): No change
- effect on ATP levels of human astrocytes ([6]; pH 7.4 versus 6.2, related to cell death): pH dependent reduction of ATP levels
- survival of proliferating TG1 cells ([3]; 10 μM, 24 h, acidic medium (HCl)): also decreased
- effect on proliferating TG1 cells [3, 10]: more pronounced
- survival of TG1 glioblastoma cancer stem cells (ATP level) ([3]; NS34 medium pH 7.35 or 6.2, 24 or 72 h, Example 13): decreases the survival
- effect on survival of proliferating TG1 cells ([3]; 24 h): a little more marked
- effect on survival of proliferating TG1 cells ([3]; 24 h, listed as DDPM): minor effect
- cytotoxic activity on proliferating TG1 cells after media exchange ([3]; treated 24 h in conditioned quiescent cell medium, versus own medium): more pronounced cytotoxic activity
- caspase 3/7 activity ([9]; pH 6.4, 24 h, proliferating and quiescent TG1 cells): stimulates caspase 3/7 activity in a dose-dependent manner
- pro-apoptotic effect (caspase 3/7 activity) ([9]; physiological pH (pH 7.3), 24 h): not observed
- cytotoxicity to quiescent TG1 cells ([2]; pH values above 7): little or no effect
- cytotoxicity to quiescent TG1 cells ([2]; slightly acidic conditions (HCl)): cytotoxic
- effect on quiescent TG1 cells [2, 10]: more pronounced
- EC50 [2]: ~1 µM
- effect on survival of quiescent TG1 cells (words) [2]: effect comparable to bisacodyl
- effect on survival of quiescent TG1 cells (words) ([2]; listed as DDPM): high cytotoxicity

SMILES: O=C(Oc1ccc(C(c2ccc(OC(=O)C(F)(F)F)cc2)c2ccccn2)cc1)C(F)(F)F [Compound 5, (Pyridin-2-ylmethylene)bis(4,1-phenylene)bis(2,2,2-trifluoroacetate)]
- effect on survival / toxicity, f-NSC cells [1]: little or no effect
- effect on survival of quiescent TG1 cells (words) [2]: effect similar to that described for bisacodyl

SMILES: COc1ccc(C(c2ccc(OC(C)=O)cc2)c2ccccn2)cc1 (stereo not drawn) [Compound 7, 4-((4-Methoxyphenyl)(pyridin-2-yl)methyl)phenyl acetate]
- effect on survival / toxicity, f-NSC cells [1]: little or no effect
- effect on survival of quiescent TG1 cells (words) [2]: effect similar to that described for bisacodyl
